# Test results taken from patent publication US11211249B2, “Herbal extracts and flavor systems for oral products and methods of making the same” (Sensient Flavors LLC, priority 2008, dated 2021).
# Experiment: Flavor release from chewing gum, mechanical mastication device with artificial saliva
# Assay type: physicochemical
# Settings: chewing gum with 2% flavor system
# Procedure: To test if adequate flavor is released from chewing gum, the chewing gums made in Example 5 were tested using a mechanical instrument to simulate human mastication of chewing gum, which can be found in Kleber et al. A mastication device designed for the evaluation of chewing gum is set forth in Journal of Dental Research, 1981, 109-114, which is incorporated herein in its entirety. Artificial saliva (15 ml) was placed in the reservoir, and the thermostatically controlled heating element was turned on to maintain the saliva and gum at body temperature for proper chewing consistency. One stick of test chewing gum (approximately 3 grams with 2% flavor system added) was placed in the warmed chamber and the artificial saliva was exposed to the chewing gum for 1 minute under chewing simulation conditions. All the artificial saliva (15 ml) was removed as quickly as possible with a pipette, delivered immediately into a glass bottle and sealed. The saliva was replaced with a fresh 15 ml aliquot, the chewing conditions restarted and the gum samples were treated for another minute. […] Two markers, Marker 1, thymol, and Marker 2, menthol, were selected to monitor flavor release based on quantity and antimicrobial efficiency. […] It was estimated that enough flavor was released during the first 15-20 minutes to have antimicrobial activity based on the quantity released and the MIC results.
structure (smiles),measurement,value
"Cc1ccc(C(C)C)c(O)c1 [Marker 1, thymol]",release course over time of chewing,released constantly for the first 10 minutes and afterward decreases
